In brackets after ≈: the same amount, converted by molar mass.
How the values were obtained:
Experiment in all cases: Minimum Inhibitory Concentration (MIC) in LB media;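 on Minimum Inhibitory Concentration A. baumannii ATCC 19606: twofold compound dilutions from DMSO stocks in LB broth microplates, overnight incubation at 37 °C, growth read by absorbance at 600 nm, with DMSO and sterility controls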
Format in all cases: cell-based
[1] = tested on: Escherichia coli ATCC 25922; details: for MIC: Escherichia coli, ATCC25922, read-out: Minimum Inhibitory Concentration E. coli ATCC 25922
Excerpt: (§1) The compounds of Formula (I) are of interest due to their potent antibacterial effects. The ability of the invention compounds disclosed herein to achieve an antibacterial effect may be evaluated with regard to their ability to inhibit the growth of bacterial species like Escherichia coli ATCC 25922, Staphylococcus aureus ATCC 29213, Klebsiella pneumoniae ATCC 13883, Acinetobacter baumannii ATCC 19606, Pseudomonas aeruginosa ATCC 27853, Enterococcus faecalis ATCC 29212 and Enterococcus faecalis ATCC 29212 using an assay based on the following Minimum Inhibitory Concentration (MIC) protocol:
(§2) The medium sterility is checked by incubating at 37° C. for a period of 48 h.
(§3) Bacterial cultures that are stored as glycerol stocks at −80° C. are sub cultured on LB agar plates to obtain isolated colonies. A single colony of each strain is cultured in LB broth. The cultures are incubated at 37 C, 200 rpm till they reach an optical density (OD at 600 nm) of 0.8 to 1. […] Test compounds are dissolved in dimethyl sulfoxide (DMSO) to a stock concentration of 4 mg/ml. A twofold dilution series of this DMSO stock is prepared in a 96 well V bottom microtitre plate from rows A to H. A 3 μL volume of these dilutions are transferred to a 96-well flat bottom microtitre assay plate. Controls to monitor the effects of DMSO and media sterility are included. Each well is inoculated with 150 μL of the above diluted culture. The plates are incubated at 37° C. overnight in a humidified incubator. The following morning, the plates are read using a Spectrophotometer at 600 nm wavelength. […] The antibacterial activity (MIC) determined against representative Gram positive (S. aureus, E. faecalis) and Gram negative (E.coli, -P. aeruginosa and A. baumannii) pathogen were reported Table 1.

[2] = tested on: Klebsiella pneumoniae ATCC 13883; details: for MIC: Klebsiella pneumoniae, ATCC13883, read-out: Minimum Inhibitory Concentration K. pneumoniae ATCC 13883
Excerpt: as §1, §2, §3

[3] = tested on: Pseudomonas aeruginosa ATCC 27853; details: for MIC: Pseudomonas aeruginosa, ATCC27853, read-out: Minimum Inhibitory Concentration P. aeruginosa ATCC 27853
Excerpt: as §1, §2, §3

[4] = tested on: Enterococcus faecalis ATCC 29212; details: for MIC: Enterococcus faecalis, ATCC29212, read-out: Minimum Inhibitory Concentration E. faecalis ATCC 29212
Excerpt: as §1, §2, §3

[5] = tested on: Staphylococcus aureus ATCC 29213; details: for MIC: Staphylococcus aureus, ATCC29213, read-out: Minimum Inhibitory Concentration S. aureus ATCC 29213
Excerpt: as §1, §2, §3

[6] = tested on: Acinetobacter baumannii ATCC 19606; details: for MIC: Acinetobacter baumannii, ATCC19606;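 on all read-outs here: twofold compound dilutions from DMSO stocks in LB broth microplates, overnight incubation at 37 °C, growth read by absorbance at 600 nm, with DMSO and sterility controls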
Experimental: Bacterial cultures that are stored as glycerol stocks at −80° C. are sub cultured on LB agar plates to obtain isolated colonies. A single colony of each strain is cultured in LB broth. […] Test compounds are dissolved in dimethyl sulfoxide (DMSO) to a stock concentration of 4 mg/ml. A twofold dilution series of this DMSO stock is prepared in a 96 well V bottom microtitre plate from rows A to H. A 3 μL volume of these dilutions are transferred to a 96-well flat bottom microtitre assay plate. Controls to monitor the effects of DMSO and media sterility are included. Each well is inoculated with 150 μL of the above diluted culture. The plates are incubated at 37° C. overnight in a humidified incubator. The following morning, the plates are read using a Spectrophotometer at 600 nm wavelength.

Structure (SMILES) | MIC [1] [µg/mL] | MIC [2] [µg/mL] | MIC [3] [µg/mL] | MIC [4] [µg/mL] | MIC [5] [µg/mL] | MIC [6] [µg/mL] | Minimum Inhibitory Concentration E. coli ATCC 25922 [1] [µg/mL] | Minimum Inhibitory Concentration K. pneumoniae ATCC 13883 [2] [µg/mL] | Minimum Inhibitory Concentration P. aeruginosa ATCC 27853 [3] [µg/mL] | Minimum Inhibitory Concentration E. faecalis ATCC 29212 [4] [µg/mL] | Minimum Inhibitory Concentration S. aureus ATCC 29213 [5] [µg/mL] | Minimum Inhibitory Concentration A. baumannii ATCC 19606 [6] [µg/mL]
Cn1c(=O)ccc2ncc(F)c(CCCNCC3CN(c4ccc5c(n4)NC(=O)CO5)C(=O)O3)c21 (racemic) [Example 1, 6-(5-(((3-(3-fluoro-5-methyl-6-oxo-5,6-dihydro-1,5-naphthyridin-4-yl)propyl)amino)methyl)-2-oxooxazolidin-3-yl)-2H-pyrido[3,2-b][1,4]oxazin-3(4H)-one] | < 0.5 | < 1 | < 16 | < 4 | < 4 | < 0.5 | – | – | – | – | – | –
Cn1c(=O)ccc2ccc(F)c(C[C@@H](O)CNC[C@H]3CN(c4ccc5c(n4)NC(=O)CO5)C(=O)O3)c21 (single isomer, unassigned) [Example 19] | 0.25 (≈ 0.503 µM) | 0.125 (≈ 0.251 µM) | 2 (≈ 4.02 µM) | 0.5 (≈ 1.01 µM) | 0.25 (≈ 0.503 µM) | 1 (≈ 2.01 µM) | – | – | – | – | – | –
Cn1c(=O)ccc2ncc(F)c(CCCNCC3CN(c4ccc5c(n4)NC(=O)CO5)C(=O)O3)c21 (stereo not drawn) [Example 1b, Chiral 6-(5-(((3-(3-fluoro-5-methyl-6-oxo-5,6-dihydro-1,5-naphthyridin-4-yl)propyl)amino)methyl)-2-oxooxazolidin-3-yl)-2H-pyrido[3,2-b][1,4]oxazin-3(4H)-one] | – | – | – | – | – | – | <0.5 | <1 | <16 | <4 | <4 | <0.5
CN1C(=O)CCc2ccc(F)c(CCNC[C@H]3CN(c4ccc5c(n4)NC(=O)CO5)C(=O)O3)c21 [Example 2, (S)-6-(5-(((2-(7-fluoro-1-methyl-2-oxo-1,2,3,4-tetrahydroquinolin-8-yl)ethyl)amino)methyl)-2-oxooxazolidin-3-yl)-2H-pyrido[3,2-b][1,4]oxazin-3(4H)-one] | 0.125 (≈ 0.266 µM) | 0.25 (≈ 0.533 µM) | 4 (≈ 8.52 µM) | 1 (≈ 2.13 µM) | 0.125 (≈ 0.266 µM) | 0.125 (≈ 0.266 µM) | – | – | – | – | – | –
Cc1nc2ccc(F)c(CCNC[C@@H]3CN(c4ccc5c(n4)NC(=O)CO5)C(=O)O3)c2n(C)c1=O [Example 7, (R)-6-(5-(((2-(6-fluoro-2,4-dimethyl-3-oxo-3,4-dihydroquinoxalin-5-yl)ethyl)amino)methyl)-2-oxooxazolidin-3-yl)-2H-pyrido[3,2-b][1,4]oxazin-3(4H)-one] | 0.125 (≈ 0.259 µM) | 0.25 (≈ 0.518 µM) | 2 (≈ 4.15 µM) | 0.25 (≈ 0.518 µM) | 0.06 (≈ 0.124 µM) | 0.06 (≈ 0.124 µM) | – | – | – | – | – | –
CS(=O)(=O)CCn1c(=O)ccc2ccc(F)c(CCNC[C@H]3CN(c4ccc5c(n4)NC(=O)CO5)C(=O)O3)c21 [Example 11, (S)-6-(5-(((2-(7-fluoro-1-(2-(methylsulfonyl)ethyl)-2-oxo-1,2-dihydroquinolin-8-yl)ethyl)amino)methyl)-2-oxooxazolidin-3-yl)-2H-pyrido[3,2-b][1,4]oxazin-3(4H)-one] | 0.25 (≈ 0.447 µM) | 0.25 (≈ 0.447 µM) | 2 (≈ 3.57 µM) | 0.5 (≈ 0.894 µM) | 0.03 (≈ 0.0536 µM) | 0.5 (≈ 0.894 µM) | – | – | – | – | – | –
Cn1c(=O)cnc2ccc(F)c(CCNC[C@H]3CN(c4ncc5c(n4)NC(=O)CO5)C(=O)O3)c21 [Example 17, (S)-2-(5-(((2-(6-fluoro-4-methyl-3-oxo-3,4-dihydroquinoxalin-5-yl)ethyl)amino)methyl)-2-oxooxazolidin-3-yl)-6H-pyrimido[5,4-b][1,4]oxazin-7(8H)-one] | 0.125 (≈ 0.266 µM) | 0.25 (≈ 0.533 µM) | 2 (≈ 4.26 µM) | 0.25 (≈ 0.533 µM) | 0.125 (≈ 0.266 µM) | 1 (≈ 2.13 µM) | – | – | – | – | – | –
COCCn1c(=O)ccc2ccc(F)c(CCNC[C@H]3CN(c4cnc5c(n4)NC(=O)CO5)C(=O)O3)c21 [Example 21, (S)-6-(5-(((2-(7-fluoro-1-(2-methoxyethyl)-2-oxo-1,2-dihydroquinolin-8-yl)ethyl)amino)methyl)-2-oxooxazolidin-3-yl)-2H-pyrazino[2,3-b][1,4]oxazin-3(4H)-one] | 0.06 (≈ 0.117 µM) | 0.125 (≈ 0.244 µM) | 1 (≈ 1.95 µM) | 0.25 (≈ 0.488 µM) | 0.015 (≈ 0.0293 µM) | 0.125 (≈ 0.244 µM) | – | – | – | – | – | –

Source: patent publication US10912780B2, “Heterocyclic compounds useful as anti-bacterial agents and method for production thereof” (Bugworks Research, Inc., priority 2017, dated 2021)
